Experimental findings from US20080234333A1, “Novel Hydroxamic Acid Derivative as Peptide Deformylase Inhibitor and Manufacturing Method Thereof” (priority 2005, published 2008) are described below.

A word on the LD50: it is the dose at which mortality reaches 50%. A lower LD50 goes with a more toxic substance. What is called MIC is the lowest concentration found to suppress growth.

The nature of data set [1]: Acute toxicity study in mice. Particulars: male, mouse, in vivo, 4000 mg/kg; ICR mice (♂, 4 weeks), oral 4,000 mg/kg dose, observed for 14 days. How it is done:
The acute toxicity of the compounds of Example 7, 13, 18 and 47 were tested using several groups of ICR mice each of 6 mice.

In a further data set the test system is Streptococcus pyogenes. As to the kind of experiment: MIC, microdilution method in 96-well plates. Particulars: Mueller-Hinton Broth, 37° C., 24 hours of incubation, read-out: MIC Streptococcus pyogenes. It counts as cell-based. The procedure: (§1) Minimum inhibitory concentrations (MICs) were determined using the microdilution method in 96-well format plates. Each of the compounds of Examples was dissolved in dimethyl sulfoxide to a concentration of 2 mg/mL and stored at 4° C. until used. They were diluted in Mueller-Hinton Broth (MHB) and used for MIC determination. The range of concentrations tested was […] final concentration using a two-fold dilution system. Plates were incubated at 37° C. and MIC were recorded after 24 hours of incubation for bacteria.
(§2) Linezolid and vancomycin were used as standard antibiotics, respectively.

The subject of another data set is Streptococcus agalactiae. The data set is described as follows: MIC, microdilution method in 96-well plates. In kind it is cell-based. To be noted: Mueller-Hinton Broth, 37° C., 24 hours of incubation, read-out: MIC Streptococcus agalactiae. The procedure:
as §1, §2

Data set [2] has as its system Vancomycin-resistant Enterococcus faecalis. As to the kind of experiment: MIC, microdilution method in 96-well plates. It counts as cell-based. Particulars: Mueller-Hinton Broth, 37° C., 24 hours of incubation, read-out: MIC Vancomycin-resistant Enterococcus faecalis. How it is done:
as §1, §2
(In general: Dilution methods test growth across graded concentrations, often in twofold steps.)

Data set [3] deals with Methicillin-resistant Staphylococcus aureus. As to the kind of experiment: MIC, microdilution method in 96-well plates. In kind it is cell-based. To be noted: Mueller-Hinton Broth, 37° C., 24 hours of incubation, read-out: MIC Methicillin-resistant Staphylococcus aureus. How it is done: as §1, §2
A further data set relates to Streptococcus pneumoniae. As to the kind of experiment: MIC, microdilution method in 96-well plates. In kind it is cell-based. To be noted: Mueller-Hinton Broth, 37° C., 24 hours of incubation, read-out: MIC Streptococcus pneumoniae. The procedure: as §1, §2

Values after ≈ are worked out from the molar mass of the structure shown. Bounds are passed on as bounds.

Consider `Cc1ccc(NC(=O)NC2CCN(C(=O)[C@@H](NC(=O)[C@H](CC3CCCC3)CN(O)C=O)C(C)(C)C)CC2)cc1` [Example 47, (R)-2-Cyclopentylmethyl-N-{(S)-2,2-dimethyl-1-[4-(3-p-tolyl-ureido)-piperidine-1-carbonyl]-propyl}-3-(formyl-hydroxy-amino)-propionamide], for which the LD50 at 14 days in data set [1] was greater than 4000 mg/kg.
With `CC(C)(C)[C@H](NC(=O)[C@@H](CC(=O)NO)CC1CCCC1)C(=O)N1CCC(NC(=O)c2ccc(C(F)(F)F)cc2)CC1` [Example 13, (R)-2-Cyclopentylmethyl-N^1-{(S)-2,2-dimethyl-1-[4-(4-trifluoromethyl-benzoylamino)-piperidine-1-carbonyl]-propyl}-N^4-hydroxy-succinamide], the minimum inhibitory concentration (MIC) stood at 0.4 µg/mL (≈ 0.687 µM) with Streptococcus pyogenes; 0.2 µg/mL (≈ 0.343 µM) in the data set with Streptococcus agalactiae; 6.3 µg/mL (≈ 10.8 µM) in data set [2]; 12.5 µg/mL (≈ 21.5 µM) in data set [3]; 3.1 µg/mL (≈ 5.32 µM) in the data set with Streptococcus pneumoniae. Moreover, the LD50 at 14 days in data set [1] was greater than 4000 mg/kg.
`CCCC[C@H](CC(=O)NO)C(=O)N[C@H](C(=O)N1CCC(NC(=O)c2ccc(C)cc2)CC1)C(C)(C)C` [Example 18, (R)-2-Butyl-N^1-{(S)-2,2-dimethyl-1-[4-(4-methyl-benzoylamino)-piperidine-1-carbonyl]-propyl}-N^4-hydroxy-succinamide] gave an LD50 at 14 days in data set [1] greater than 4000 mg/kg.
